# Tests used:
# Staphylococcus aureus [1] = assay: Antibacterial activity against Staphylococcus aureus ATCC 25923 assessed as effect on planktonic growth at 10.9 ug/ml after 20 hrs relative to control; type: functional
# Pseudomonas aeruginosa [2] = assay: Antibacterial activity against Pseudomonas aeruginosa ATCC 27853 assessed as effect on planktonic growth at 1.37 ug/ml after 20 hrs relative to control; type: functional
# Streptococcus mutans [3] = assay: Antibacterial activity against Streptococcus mutans ATCC 25175 assessed as effect on planktonic growth at 0.68 ug/ml after 20 hrs relative to control; type: functional
# Staphylococcus aureus [4] = assay: Antibacterial activity against Staphylococcus aureus ATCC 25923 assessed as effect on planktonic growth at 87.5 ug/ml after 20 hrs relative to control; type: functional
# [5] = tested on: Staphylococcus epidermidis; assay: Antibacterial activity against Staphylococcus epidermidis ATCC 35547 assessed as effect on planktonic growth at 1.37 ug/ml after 20 hrs relative to control; type: functional
# Pseudomonas aeruginosa [6] = assay: Antibacterial activity against Pseudomonas aeruginosa ATCC 27853 assessed as effect on planktonic growth at 5.5 ug/ml after 20 hrs relative to control; type: functional
# [7] = tested on: Staphylococcus epidermidis; assay: Antibacterial activity against Staphylococcus epidermidis ATCC 35547 assessed as effect on planktonic growth at 0.17 ug/ml after 20 hrs relative to control; type: functional
# Pseudomonas aeruginosa [8] = assay: Antibacterial activity against Pseudomonas aeruginosa ATCC 27853 assessed as effect on planktonic growth at 21.9 ug/ml after 20 hrs relative to control; type: functional
# Pseudomonas aeruginosa [9] = assay: Antibacterial activity against Pseudomonas aeruginosa ATCC 27853 assessed as effect on planktonic growth at 2.73 ug/ml after 20 hrs relative to control; type: functional
# [10] = tested on: Staphylococcus epidermidis; assay: Antibacterial activity against Staphylococcus epidermidis ATCC 35547 assessed as effect on planktonic growth at 5.5 ug/ml after 20 hrs relative to control; type: functional
# Streptococcus mutans [11] = assay: Antibacterial activity against Streptococcus mutans ATCC 25175 assessed as effect on planktonic growth at 5.5 ug/ml after 20 hrs relative to control; type: functional
# Staphylococcus aureus [12] = assay: Antibacterial activity against Staphylococcus aureus ATCC 25923 assessed as effect on planktonic growth at 0.34 ug/ml after 20 hrs relative to control; type: functional
# [13] = tested on: Staphylococcus epidermidis; assay: Antibacterial activity against Staphylococcus epidermidis ATCC 35547 assessed as effect on planktonic growth at 87.5 ug/ml after 20 hrs relative to control; type: functional
# [14] = tested on: Staphylococcus epidermidis; assay: Antibacterial activity against Staphylococcus epidermidis ATCC 35547 assessed as effect on planktonic growth at 10.9 ug/ml after 20 hrs relative to control; type: functional
# Pseudomonas aeruginosa [15] = assay: Antibacterial activity against Pseudomonas aeruginosa ATCC 27853 assessed as effect on planktonic growth at 10.9 ug/ml after 20 hrs relative to control; type: functional
# [16] = tested on: Staphylococcus epidermidis; assay: Antibacterial activity against Staphylococcus epidermidis ATCC 35547 assessed as effect on planktonic growth at 21.9 ug/ml after 20 hrs relative to control; type: functional
# [17] = tested on: Staphylococcus epidermidis; assay: Antibacterial activity against Staphylococcus epidermidis ATCC 35547 assessed as effect on planktonic growth at 43.8 ug/ml after 20 hrs relative to control; type: functional
# Streptococcus mutans [18] = assay: Antibacterial activity against Streptococcus mutans ATCC 25175 assessed as effect on planktonic growth at 0.34 ug/ml after 20 hrs relative to control; type: functional
# Pseudomonas aeruginosa [19] = assay: Antibacterial activity against Pseudomonas aeruginosa ATCC 27853 assessed as effect on planktonic growth at 87.5 ug/ml after 20 hrs relative to control; type: functional
# Streptococcus mutans [20] = assay: Antibacterial activity against Streptococcus mutans ATCC 25175 assessed as effect on planktonic growth at 21.9 ug/ml after 20 hrs relative to control; type: functional
# Staphylococcus aureus [21] = assay: Antibacterial activity against Staphylococcus aureus ATCC 25923 assessed as effect on planktonic growth at 2.73 ug/ml after 20 hrs relative to control; type: functional
# Staphylococcus aureus [22] = assay: Antibacterial activity against Staphylococcus aureus ATCC 25923 assessed as effect on planktonic growth at 5.5 ug/ml after 20 hrs relative to control; type: functional
# [23] = tested on: Staphylococcus epidermidis; assay: Antibacterial activity against Staphylococcus epidermidis ATCC 35547 assessed as inhibition of biofilm formation after 20 hrs by crystal-violet staining method; type: functional, organism-based
# Pseudomonas aeruginosa [24] = assay: Antibacterial activity against Pseudomonas aeruginosa ATCC 27853 assessed as effect on planktonic growth at 0.34 ug/ml after 20 hrs relative to control; type: functional
# Streptococcus mutans [25] = assay: Antibacterial activity against Streptococcus mutans ATCC 25175 assessed as effect on planktonic growth at 1.37 ug/ml after 20 hrs relative to control; type: functional
# Staphylococcus aureus [26] = assay: Antibacterial activity against Staphylococcus aureus ATCC 25923 assessed as effect on planktonic growth at 1.37 ug/ml after 20 hrs relative to control; type: functional
# [27] = tested on: Staphylococcus epidermidis; assay: Antibacterial activity against Staphylococcus epidermidis ATCC 35547 assessed as effect on planktonic growth at 2.73 ug/ml after 20 hrs relative to control; type: functional
# Streptococcus mutans [28] = assay: Antibacterial activity against Streptococcus mutans ATCC 25175 assessed as effect on planktonic growth at 87.5 ug/ml after 20 hrs relative to control; type: functional
# Streptococcus mutans [29] = assay: Antibacterial activity against Streptococcus mutans ATCC 25175 assessed as effect on planktonic growth at 10.9 ug/ml after 20 hrs relative to control; type: functional
# Pseudomonas aeruginosa [30] = assay: Antibacterial activity against Pseudomonas aeruginosa ATCC 27853 assessed as effect on planktonic growth at 43.8 ug/ml after 20 hrs relative to control; type: functional
# Streptococcus mutans [31] = assay: Antibacterial activity against Streptococcus mutans ATCC 25175 assessed as effect on planktonic growth at 2.73 ug/ml after 20 hrs relative to control; type: functional
# Pseudomonas aeruginosa [32] = assay: Antibacterial activity against Pseudomonas aeruginosa ATCC 27853 assessed as effect on planktonic growth at 0.68 ug/ml after 20 hrs relative to control; type: functional
# Staphylococcus aureus [33] = assay: Antibacterial activity against Staphylococcus aureus ATCC 25923 assessed as effect on planktonic growth at 43.8 ug/ml after 20 hrs relative to control; type: functional
# Staphylococcus aureus [34] = assay: Antibacterial activity against Staphylococcus aureus ATCC 25923 assessed as effect on planktonic growth at 0.17 ug/ml after 20 hrs relative to control; type: functional
# Streptococcus mutans [35] = assay: Antibacterial activity against Streptococcus mutans ATCC 25175 assessed as effect on planktonic growth at 43.8 ug/ml after 20 hrs relative to control; type: functional
# Streptococcus mutans [36] = assay: Antibacterial activity against Streptococcus mutans ATCC 25175 assessed as effect on planktonic growth at 0.17 ug/ml after 20 hrs relative to control; type: functional
# [37] = tested on: Staphylococcus epidermidis; assay: Antibacterial activity against Staphylococcus epidermidis ATCC 35547 assessed as effect on planktonic growth at 0.68 ug/ml after 20 hrs relative to control; type: functional
# Pseudomonas aeruginosa [38] = assay: Antibacterial activity against Pseudomonas aeruginosa ATCC 27853 assessed as effect on planktonic growth at 0.17 ug/ml after 20 hrs relative to control; type: functional
# [39] = tested on: Staphylococcus epidermidis; assay: Antibacterial activity against Staphylococcus epidermidis ATCC 35547 assessed as effect on planktonic growth at 0.34 ug/ml after 20 hrs relative to control; type: functional
# Staphylococcus aureus [40] = assay: Antibacterial activity against Staphylococcus aureus ATCC 25923 assessed as effect on planktonic growth at 0.68 ug/ml after 20 hrs relative to control; type: functional
# Staphylococcus aureus [41] = assay: Antibacterial activity against Staphylococcus aureus ATCC 25923 assessed as effect on planktonic growth at 21.9 ug/ml after 20 hrs relative to control; type: functional
# Pseudomonas aeruginosa [42] = assay: Antibacterial activity against Pseudomonas aeruginosa ATCC 27853 assessed as inhibition of biofilm formation after 20 hrs by crystal-violet staining method; type: functional, organism-based
smiles,measurement,setting,value
COc1ccc(C)cc1C1=C(Br)C(=O)O/C1=C\c1ccccc1Cl,Activity,Staphylococcus aureus [1],10.9%
same,Activity,Pseudomonas aeruginosa [2],-7.5%
same,Activity,Streptococcus mutans [3],5.6%
same,Activity,Staphylococcus aureus [4],37%
same,Activity,[5],8.5%
same,Activity,Pseudomonas aeruginosa [6],-5.3%
same,Activity,[7],-1.6%
same,Activity,Pseudomonas aeruginosa [8],-6.8%
same,Activity,Pseudomonas aeruginosa [9],-4.1%
same,Activity,[10],3.7%
same,Activity,Streptococcus mutans [11],0.8%
same,Activity,Staphylococcus aureus [12],8.3%
same,Activity,[13],70.5%
same,Activity,[14],13.5%
same,Activity,Pseudomonas aeruginosa [15],-10.2%
same,Activity,[16],15.8%
same,Activity,[17],36.5%
same,Activity,Streptococcus mutans [18],6.4%
same,Activity,Pseudomonas aeruginosa [19],11.1%
same,Activity,Streptococcus mutans [20],-3.3%
same,Activity,Staphylococcus aureus [21],16.9%
same,Activity,Staphylococcus aureus [22],8.3%
same,inhibition,[23],Dose-dependent effect
same,Activity,Pseudomonas aeruginosa [24],-8.6%
same,Activity,Streptococcus mutans [25],1.5%
same,Activity,Staphylococcus aureus [26],16.9%
same,Activity,[27],-0.7%
same,Activity,Streptococcus mutans [28],18.9%
same,Activity,Streptococcus mutans [29],-13.6%
same,Activity,Pseudomonas aeruginosa [30],-2%
same,Activity,Streptococcus mutans [31],-4.1%
same,Activity,Pseudomonas aeruginosa [32],-7.8%
same,Activity,Staphylococcus aureus [33],25.3%
same,Activity,Staphylococcus aureus [34],6%
same,Activity,Streptococcus mutans [35],7.4%
same,Activity,Streptococcus mutans [36],1.5%
same,Activity,[37],0.9%
same,Activity,Pseudomonas aeruginosa [38],-3.8%
same,Activity,[39],-0.1%
same,Activity,Staphylococcus aureus [40],10.9%
same,Activity,Staphylococcus aureus [41],7.3%
same,inhibition,Pseudomonas aeruginosa [42],Dose-dependent effect
COc1ccc(C)cc1C1=C(Br)C(=O)N(CC(C)C)C1(O)Cc1ccccc1Cl (stereo unspecified),Activity,Staphylococcus aureus [1],-6.75%
same,Activity,Pseudomonas aeruginosa [2],-7.4%
same,Activity,Streptococcus mutans [3],13%
same,Activity,Staphylococcus aureus [4],16.5%
same,Activity,[5],6.4%
same,Activity,Pseudomonas aeruginosa [6],-17.6%
same,Activity,[7],6%
same,Activity,Pseudomonas aeruginosa [8],-5.6%
same,Activity,Pseudomonas aeruginosa [9],-20.3%
same,Activity,[10],16.5%
same,Activity,Streptococcus mutans [11],35.6%
same,Activity,Staphylococcus aureus [12],-0.5%
same,Activity,[13],60.7%
same,Activity,[14],22.6%
same,Activity,Pseudomonas aeruginosa [15],-17.5%
same,Activity,[16],34.6%
same,Activity,[17],48.3%
same,Activity,Streptococcus mutans [18],11.1%
same,Activity,Pseudomonas aeruginosa [19],32.5%
same,Activity,Streptococcus mutans [20],39.8%
same,Activity,Staphylococcus aureus [21],0.5%
same,Activity,Staphylococcus aureus [22],5%
same,inhibition,[23],Dose-dependent effect
same,IC50,"[23]; ATCC 35547, 20 h",> 87.5 µg/mL
same,Activity,Pseudomonas aeruginosa [24],-4.5%
same,Activity,Streptococcus mutans [25],12.6%
same,Activity,Staphylococcus aureus [26],-3%
same,Activity,[27],2.8%
same,Activity,Streptococcus mutans [28],15.3%
same,Activity,Streptococcus mutans [29],28.7%
same,Activity,Pseudomonas aeruginosa [30],17.1%
same,Activity,Streptococcus mutans [31],30.7%
same,Activity,Pseudomonas aeruginosa [32],-4.7%
same,Activity,Staphylococcus aureus [33],2.25%
same,Activity,Staphylococcus aureus [34],-1.25%
same,Activity,Streptococcus mutans [35],27.2%
same,Activity,Streptococcus mutans [36],7.3%
same,Activity,[37],2.7%
same,Activity,Pseudomonas aeruginosa [38],-2.5%
same,Activity,[39],24.8%
same,Activity,Staphylococcus aureus [40],-2.5%
same,Activity,Staphylococcus aureus [41],-10.75%
same,inhibition,Pseudomonas aeruginosa [42],Dose-dependent effect
same,IC50,"Pseudomonas aeruginosa [42]; ATCC 27853, 20 h",> 87.5 µg/mL
